From article PMC10247784, “Physiological activation of human and mouse bitter taste receptors by bile acids” (Communications Biology, 2023)
Several values for one entry are separate records, joined by “and”; a condition that tells them apart may be missing. Equal values may be shown once.

Target: T1, human TAS2R4 (Homo sapiens, UniProt Q9NYW5)
T1 construct: expressed in transfected cells; host or cells: HEK293T-Gα16gust44
T1 sequence (Q9NYW5 1-299): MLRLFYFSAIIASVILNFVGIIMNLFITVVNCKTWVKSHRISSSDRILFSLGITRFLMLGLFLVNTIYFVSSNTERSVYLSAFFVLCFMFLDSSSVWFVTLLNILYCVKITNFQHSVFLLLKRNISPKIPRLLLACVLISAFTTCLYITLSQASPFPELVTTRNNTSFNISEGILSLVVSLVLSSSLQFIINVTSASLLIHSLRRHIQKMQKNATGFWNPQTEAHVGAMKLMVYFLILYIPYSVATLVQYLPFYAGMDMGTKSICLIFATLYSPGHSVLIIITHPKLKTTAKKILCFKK
Assay: Calcium imaging assay (FLIPR), HEK293T-Gα16gust44 cells transfected with human TAS2R4
Format: cell-based
Procedure, shortened: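 Bile acids from DMSO stocks are applied to dye-loaded cells one day after transient receptor transfection, and calcium-dependent fluorescence is recorded. Maximum signal is standardized to basal and normalized to buffer-only wells, with empty-vector signal subtracted.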

C[C@H](CCC(=O)NCCS(=O)(=O)O)[C@H]1CC[C@H]2[C@@H]3[C@H](O)C[C@@H]4C[C@H](O)CC[C@]4(C)[C@H]3C[C@H](O)[C@]12C [Taurocholic Acid, taurocholic acid]
Efficacy = maximal amplitude (ΔF/F) (TAS2R4, bile acids, mean): 0.1496 | Efficacy (maximal amplitude ΔF/F), individual data points (TAS2R4, bile acids, single replicates, listed as TCA): 0.127 and 0.1657 and 0.1561 | Δ F/F (TAS2R4, conc. 0,01 mM): 0.0134 | Δ F/F (TAS2R4, conc. 0,1 mM): 0.09538 | Δ F/F (TAS2R4, conc. 0,03 mM): 0.04001 | Δ F/F (TAS2R4, conc. 0,3 mM): 0.1496 | Δ F/F (TAS2R4, conc. 0,001 mM): 0.005857 | Δ F/F (TAS2R4, conc. 0,003 mM): 0.007034 | RLU, fluorescence trace (Time (s) 0): 0 RLU | RLU, fluorescence trace (Time (s) 2): -24.6054 RLU | RLU, fluorescence trace (Time (s) 4): 12.8274 RLU | RLU, fluorescence trace (Time (s) 6): 3.789 RLU | RLU, fluorescence trace (Time (s) 8): -20.122 RLU | RLU, fluorescence trace (Time (s) 12): 7.77 RLU | RLU, fluorescence trace (Time (s) 14): -34.8945 RLU | RLU, fluorescence trace (Time (s) 16): -37.677 RLU | RLU, fluorescence trace (Time (s) 18): -48.5281 RLU | RLU, fluorescence trace (Time (s) 18.766 (TCA, TLCA: 18.782)): 30.085 RLU | RLU, fluorescence trace (Time (s) 20.781 (TCA, TLCA: 20.782)): 9.231 RLU | RLU, fluorescence trace (Time (s) 22.781 (TCA, TLCA: 22.782)): 3.151 RLU | RLU, fluorescence trace (Time (s) 24.781 (TCA, TLCA: 24.782)): 34.1327 RLU | RLU, fluorescence trace (Time (s) 26.781 (TCA, TLCA: 26.782)): 57.6073 RLU | RLU, fluorescence trace (Time (s) 28.781 (TCA, TLCA: 28.782)): 122.11 RLU | RLU, fluorescence trace (Time (s) 30.781 (TCA, TLCA: 30.782)): 164.035 RLU | RLU, fluorescence trace (Time (s) 32.781 (TCA, TLCA: 32.782)): 242.016 RLU | RLU, fluorescence trace (Time (s) 34.781 (TCA, TLCA: 34.782)): 272.716 RLU | RLU, fluorescence trace (Time (s) 36.781 (TCA, TLCA: 36.782)): 320.809 RLU | RLU, fluorescence trace (Time (s) 38.781 (TCA, TLCA: 38.782)): 384.052 RLU | RLU, fluorescence trace (Time (s) 40.781 (TCA, TLCA: 40.782)): 404.135 RLU | RLU, fluorescence trace (Time (s) 42.781 (TCA, TLCA: 42.782)): 433.94 RLU | RLU, fluorescence trace (Time (s) 44.781 (TCA, TLCA: 44.782)): 475.477 RLU | RLU, fluorescence trace (Time (s) 46.781 (TCA, TLCA: 46.782)): 493.347 RLU | RLU, fluorescence trace (Time (s) 48.781 (TCA, TLCA: 48.782)): 501.503 RLU | RLU, fluorescence trace (Time (s) 50.781 (TCA, TLCA: 50.782)): 547.521 RLU | RLU, fluorescence trace (Time (s) 52.781 (TCA, TLCA: 52.782)): 553.791 RLU | RLU, fluorescence trace (Time (s) 54.781 (TCA, TLCA: 54.782)): 588.235 RLU | RLU, fluorescence trace (Time (s) 56.781 (TCA, TLCA: 56.782)): 548.835 RLU | RLU, fluorescence trace (Time (s) 58.781 (TCA, TLCA: 58.782)): 588.475 RLU | RLU, fluorescence trace (Time (s) 60.781 (TCA, TLCA: 60.782)): 601.608 RLU | RLU, fluorescence trace (Time (s) 62.781 (TCA, TLCA: 62.782)): 626.215 RLU | RLU, fluorescence trace (Time (s) 64.781 (TCA, TLCA: 64.782)): 626.188 RLU | RLU, fluorescence trace (Time (s) 66.781 (TCA, TLCA: 66.782)): 619.641 RLU | RLU, fluorescence trace (Time (s) 68.781 (TCA, TLCA: 68.782)): 624.108 RLU | RLU, fluorescence trace (Time (s) 70.781 (TCA, TLCA: 70.782)): 638.032 RLU | RLU, fluorescence trace (Time (s) 72.781 (TCA, TLCA: 72.782)): 646.123 RLU | RLU, fluorescence trace (Time (s) 74.781 (TCA, TLCA: 74.782)): 657.793 RLU | RLU, fluorescence trace (Time (s) 76.781 (TCA, TLCA: 76.782)): 666.37 RLU | RLU, fluorescence trace (Time (s) 78.781 (TCA, TLCA: 78.782)): 678.287 RLU | RLU, fluorescence trace (Time (s) 80.781 (TCA, TLCA: 80.782)): 665.284 RLU | RLU, fluorescence trace (Time (s) 82.781 (TCA, TLCA: 82.782)): 655.873 RLU | RLU, fluorescence trace (Time (s) 84.781 (TCA, TLCA: 84.782)): 679.941 RLU | RLU, fluorescence trace (Time (s) 86.781 (TCA, TLCA: 86.782)): 648.406 RLU | RLU, fluorescence trace (Time (s) 88.781 (TCA, TLCA: 88.782)): 644.228 RLU | RLU, fluorescence trace (Time (s) 90.781 (TCA, TLCA: 90.782)): 650.88 RLU | RLU, fluorescence trace (Time (s) 92.781 (TCA, TLCA: 92.782)): 631.638 RLU | RLU, fluorescence trace (Time (s) 94.781 (TCA, TLCA: 94.782)): 665.026 RLU | RLU, fluorescence trace (Time (s) 96.781 (TCA, TLCA: 96.782)): 673.234 RLU | RLU, fluorescence trace (Time (s) 98.781 (TCA, TLCA: 98.782)): 653.956 RLU | RLU, fluorescence trace (Time (s) 100.781 (TCA, TLCA: 100.782)): 661.771 RLU | RLU, fluorescence trace (Time (s) 102.781 (TCA, TLCA: 102.782)): 636.296 RLU | RLU, fluorescence trace (Time (s) 104.781 (TCA, TLCA: 104.782)): 641.127 RLU | RLU, fluorescence trace (Time (s) 106.781 (TCA, TLCA: 106.782)): 615.791 RLU | RLU, fluorescence trace (Time (s) 108.781 (TCA, TLCA: 108.782)): 618.091 RLU | RLU, fluorescence trace (Time (s) 110.781 (TCA, TLCA: 110.782)): 644.691 RLU | RLU, fluorescence trace (Time (s) 112.781 (TCA, TLCA: 112.782)): 640.87 RLU | RLU, fluorescence trace (Time (s) 114.781 (TCA, TLCA: 114.782)): 609.041 RLU | RLU, fluorescence trace (Time (s) 116.781 (TCA, TLCA: 116.782)): 616.307 RLU | RLU, fluorescence trace (Time (s) 118.781 (TCA, TLCA: 118.782)): 584.502 RLU | RLU, fluorescence trace (Time (s) 120.781 (TCA, TLCA: 120.782)): 602.866 RLU | RLU, fluorescence trace (Time (s) 122.781 (TCA, TLCA: 122.782)): 581.164 RLU | RLU, fluorescence trace (Time (s) 124.781 (TCA, TLCA: 124.782)): 578.218 RLU | RLU, fluorescence trace (Time (s) 126.781 (TCA, TLCA: 126.782)): 564.916 RLU | RLU, fluorescence trace (Time (s) 128.781 (TCA, TLCA: 128.782)): 590.827 RLU | RLU, fluorescence trace (Time (s) 130.781 (TCA, TLCA: 130.782)): 571.073 RLU | RLU, fluorescence trace (Time (s) 132.781 (TCA, TLCA: 132.782)): 555.387 RLU | RLU, fluorescence trace (Time (s) 134.781 (TCA, TLCA: 134.782)): 548.858 RLU | RLU, fluorescence trace (Time (s) 136.781 (TCA, TLCA: 136.782)): 535.742 RLU | RLU, fluorescence trace (Time (s) 137.547): 524.559 RLU | RLU, fluorescence trace (Time (s) 143.547): 525.352 RLU | RLU, fluorescence trace (Time (s) 149.547): 486.955 RLU | RLU, fluorescence trace (Time (s) 155.547): 493.52 RLU | RLU, fluorescence trace (Time (s) 161.547): 446.448 RLU | RLU, fluorescence trace (Time (s) 167.547): 435.019 RLU | RLU, fluorescence trace (Time (s) 173.547): 386.716 RLU | RLU, fluorescence trace (Time (s) 179.547): 393.434 RLU | RLU, fluorescence trace (Time (s) 185.547): 372.463 RLU | RLU, fluorescence trace (Time (s) 191.547): 357.243 RLU | RLU, fluorescence trace (Time (s) 197.547): 314.74 RLU | RLU, fluorescence trace (Time (s) 203.547): 318.63 RLU | RLU, fluorescence trace (Time (s) 209.547): 306.856 RLU | RLU, fluorescence trace (Time (s) 215.547): 260.931 RLU | RLU, fluorescence trace (Time (s) 221.547): 241.962 RLU | RLU, fluorescence trace (Time (s) 227.547): 290.972 RLU | RLU, fluorescence trace (Time (s) 233.547): 269.304 RLU | RLU, fluorescence trace (Time (s) 239.547): 267.596 RLU | RLU, fluorescence trace (Time (s) 245.547): 219.689 RLU | RLU, fluorescence trace (Time (s) 293.547): 189.99 RLU | RLU, fluorescence trace (Time (s) 299.547): 175.107 RLU | RLU, fluorescence trace (Time (s) 305.547): 192.603 RLU | RLU, fluorescence trace (Time (s) 311.547): 188.074 RLU | RLU, fluorescence trace (Time (s) 317.547): 199.388 RLU | RLU, fluorescence trace (Time (s) 323.547): 170.101 RLU | RLU, fluorescence trace (Time (s) 329.547): 196.926 RLU | RLU, fluorescence trace (Time (s) 335.547): 162.738 RLU | RLU, fluorescence trace (Time (s) 341.547): 164.861 RLU | RLU, fluorescence trace (Time (s) 347.547): 156.987 RLU | RLU, fluorescence trace (Time (s) 353.547): 175.115 RLU | RLU, fluorescence trace (Time (s) 359.547): 151.684 RLU | Activation threshold concentration TAS2R4 (lowest concentration with significantly increased fluorescence vs empty vector (p < 0.01)): 100 µM
